In article PMC6146907, “Structural Determinants of the Stability of Enzyme‐Responsive Polyion Complex Nanoparticles Targeting Pseudomonas aeruginosa’s Elastase” (Chemnanomat, 2018):
Peptide text beside a SMILES is read from it.

Molecular target: Pseudomonas aeruginosa Elastase (LasB) (Pseudomonas aeruginosa, UniProt P14756)
Settings: fluorescamine assay; 125 μL 1 mM peptide + 125 μL buffer with 15 μg LasB; 25 mM Na2B4O7 pH 8.0, 10 mM CaCl2; 37 °C, 4 h; fluorescence ex 355/em 460 nm; normalised to P5 = 100%; n=3
Experimental: P5’s sequence should be formed following LasB‐mediated hydrolysis of the −GLAE− sequence, present in all the peptides reported.
One‐way ANOVA, followed by Tukey's test (CI=95%,) was used to test for significance. Statistical significance was determined ‘n/s’=not significant, *** p<0.001.
Stock solutions of peptide (1 mM) or succinyl casein (0.5 mg/mL) were prepared in 25 mM Na2B4O7 buffer at pH 8.0 with 10 mM CaCl2 and 10% v/v DMSO. 125 μL of these substrate solutions were added to a 96‐well black‐walled microplate and mixed with 125 μL of the same buffer without DMSO, containing 15 μg of enzyme (LasB or HLE). Solutions of enzymes and substrates alone were prepared as controls. Every sample was prepared in triplicate. The microplate was incubated at 37 °C for 4 hours under orbital shaking. After 4 hours, 50 μL of 0.1 M EDTA in water at pH 8.0 were added to each well to quench all enzymatic activity. Then, each sample was mixed in a 1 : 1 volume ratio with a 1 mM solution of fluorescamine19 in methanol. […] After this time, fluorescence was measured exciting at 355 nm and reading the emission at 460±10 nm. […]
fluorescence is related to the elastase-mediated hydrolysis of the peptides. […]
of the elastases and the fluorescence observed is represented by black bars . […]
peptides,[4] was incubated in the absence of elastase and the fluorescence obtained was associated

Pseudomonas aeruginosa Elastase (LasB), sequence (P14756 198-498): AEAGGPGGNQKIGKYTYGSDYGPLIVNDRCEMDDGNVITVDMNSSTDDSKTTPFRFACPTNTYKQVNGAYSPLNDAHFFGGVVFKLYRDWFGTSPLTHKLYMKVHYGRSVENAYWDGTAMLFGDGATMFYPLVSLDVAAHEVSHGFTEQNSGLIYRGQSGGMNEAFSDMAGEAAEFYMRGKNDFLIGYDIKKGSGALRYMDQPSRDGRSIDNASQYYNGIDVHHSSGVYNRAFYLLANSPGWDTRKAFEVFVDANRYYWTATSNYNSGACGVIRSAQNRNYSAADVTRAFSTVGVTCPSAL

Compound	susceptibility to LasB hydrolysis (relative amine content)
CC(=O)N[C@@H](CS)C(=O)N[C@@H](CCC(=O)O)C(=O)N[C@@H](CCC(=O)O)C(=O)NCC(=O)N[C@@H](CC(C)C)C(=O)N[C@@H](C)C(=O)N[C@@H](CCC(=O)O)C(=O)N[C@@H](CCC(=O)O)C(=O)N[C@@H](CS)C(=O)O [P2SH] (Ac-CEEGLAEEC-OH)	least active
CC(=O)N[C@@H](CS)C(=O)N[C@@H](CCC(=O)O)C(=O)N[C@@H](CCC(=O)O)C(=O)N[C@@H](CCC(=O)O)C(=O)NCC(=O)N[C@@H](CC(C)C)C(=O)N[C@@H](C)C(=O)N[C@@H](CCC(=O)O)C(=O)N[C@@H](CCC(=O)O)C(=O)N[C@@H](CCC(=O)O)C(=O)N[C@@H](CS)C(=O)O [P3SH] (Ac-CEEEGLAEEEC-OH)	highest susceptibility
